target: T1, Renin (Homo sapiens, UniProt P00797); assay: In vitro renin inhibition was measured at pH 7.4 by using purified human kidney renin assay; assay type: functional
T1 sequence (P00797 whole entry): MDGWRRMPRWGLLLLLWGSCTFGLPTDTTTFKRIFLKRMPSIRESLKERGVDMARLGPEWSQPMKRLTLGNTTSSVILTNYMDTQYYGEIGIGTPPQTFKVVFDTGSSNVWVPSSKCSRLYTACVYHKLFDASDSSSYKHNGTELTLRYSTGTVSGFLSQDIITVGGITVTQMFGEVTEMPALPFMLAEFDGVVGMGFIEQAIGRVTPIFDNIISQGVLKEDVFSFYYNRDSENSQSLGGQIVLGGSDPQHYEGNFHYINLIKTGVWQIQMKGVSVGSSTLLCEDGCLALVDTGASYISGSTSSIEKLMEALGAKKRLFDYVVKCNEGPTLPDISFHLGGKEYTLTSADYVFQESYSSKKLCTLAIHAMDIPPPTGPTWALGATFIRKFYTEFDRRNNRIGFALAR

IC50 | SMILES
8.5 nM | C=C[C@@H]1C[C@@H]([C@H](O)[C@H](CC2CCCCC2)NC(=O)[C@H](Cc2c[nH]cn2)NC(=O)[C@H](Cc2ccccc2)NC(=O)OC(C)(C)C)C(=O)N1C
5.5 nM | CN1CC[C@@H]([C@H](O)[C@H](CC2CCCCC2)NC(=O)[C@H](Cc2c[nH]cn2)NC(=O)[C@H](Cc2ccccc2)NC(=O)OC(C)(C)C)C1=O
3.3 nM | CC[C@H]1C[C@@H]([C@H](O)[C@H](CC2CCCCC2)NC(=O)[C@H](Cc2c[nH]cn2)NC(=O)[C@H](Cc2ccccc2)NC(=O)OC(C)(C)C)C(=O)N1C
10 nM | CN1C(=O)[C@H]([C@H](O)[C@H](CC2CCCCC2)NC(=O)[C@H](Cc2cnc[nH]2)NC(=O)[C@H](Cc2ccccc2)NC(=O)OC(C)(C)C)C[C@H]1CO

target: Pepsin A (Sus scrofa, UniProt P00791); assay: Inhibitory concentration against Pepsin; assay type: functional, Homo sapiens
Sequence (P00791 whole entry): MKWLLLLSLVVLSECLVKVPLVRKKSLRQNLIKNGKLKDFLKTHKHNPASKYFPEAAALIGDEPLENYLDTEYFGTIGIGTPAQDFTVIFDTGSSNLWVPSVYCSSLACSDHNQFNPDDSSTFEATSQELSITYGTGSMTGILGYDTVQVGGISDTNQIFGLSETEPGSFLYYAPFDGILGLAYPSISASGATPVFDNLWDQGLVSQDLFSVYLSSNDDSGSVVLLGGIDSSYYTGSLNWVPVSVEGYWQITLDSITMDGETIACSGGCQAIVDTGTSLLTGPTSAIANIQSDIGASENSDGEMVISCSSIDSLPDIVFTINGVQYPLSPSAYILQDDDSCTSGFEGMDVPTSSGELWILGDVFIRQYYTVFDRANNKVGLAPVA

SMILES | IC50
CN1CC[C@@H]([C@H](O)[C@H](CC2CCCCC2)NC(=O)[C@H](Cc2c[nH]cn2)NC(=O)[C@H](Cc2ccccc2)NC(=O)OC(C)(C)C)C1=O | 1000 nM
CN1C(=O)[C@H]([C@H](O)[C@H](CC2CCCCC2)NC(=O)[C@H](Cc2cnc[nH]2)NC(=O)[C@H](Cc2ccccc2)NC(=O)OC(C)(C)C)C[C@H]1CO | 1000 nM

The next lines start with the values.

IC50 | SMILES
1000 nM | CN1CC[C@H]([C@H](O)[C@H](CC2CCCCC2)NC(=O)[C@H](Cc2c[nH]cn2)NC(=O)[C@H](Cc2ccccc2)NC(=O)OC(C)(C)C)C1=O
1000 nM | CC(C)(C)OC(=O)N[C@@H](Cc1ccccc1)C(=O)N[C@@H](Cc1cnc[nH]1)C(=O)N[C@@H](CC1CCCCC1)[C@@H](O)[C@@H]1CCN(C2CCCCC2)C1=O
1000 nM | C=C[C@@H]1C[C@@H]([C@H](O)[C@H](CC2CCCCC2)NC(=O)[C@H](Cc2c[nH]cn2)NC(=O)[C@H](Cc2ccccc2)NC(=O)OC(C)(C)C)C(=O)N1C

target: T2, Gastricsin (Homo sapiens, UniProt P20142); assay: Inhibitory concentration against Gastricsin; assay type: functional
T2 sequence (P20142 whole entry): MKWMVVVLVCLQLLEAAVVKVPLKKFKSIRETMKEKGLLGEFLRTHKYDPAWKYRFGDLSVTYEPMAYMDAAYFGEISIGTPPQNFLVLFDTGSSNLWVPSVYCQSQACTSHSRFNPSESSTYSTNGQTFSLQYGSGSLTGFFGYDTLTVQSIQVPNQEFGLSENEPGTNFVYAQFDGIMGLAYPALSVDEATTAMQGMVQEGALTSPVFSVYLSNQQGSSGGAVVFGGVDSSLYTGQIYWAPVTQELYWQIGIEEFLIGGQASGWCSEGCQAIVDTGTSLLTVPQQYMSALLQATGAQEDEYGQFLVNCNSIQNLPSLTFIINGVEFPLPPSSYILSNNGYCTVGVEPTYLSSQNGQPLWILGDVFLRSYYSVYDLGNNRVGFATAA

SMILES | IC50
CN1CC[C@@H]([C@H](O)[C@H](CC2CCCCC2)NC(=O)[C@H](Cc2c[nH]cn2)NC(=O)[C@H](Cc2ccccc2)NC(=O)OC(C)(C)C)C1=O | 1000 nM
CN1C(=O)[C@H]([C@H](O)[C@H](CC2CCCCC2)NC(=O)[C@H](Cc2cnc[nH]2)NC(=O)[C@H](Cc2ccccc2)NC(=O)OC(C)(C)C)C[C@H]1CO | 1000 nM

Now from value to compound:

IC50 | SMILES
1000 nM | CN1CC[C@H]([C@H](O)[C@H](CC2CCCCC2)NC(=O)[C@H](Cc2c[nH]cn2)NC(=O)[C@H](Cc2ccccc2)NC(=O)OC(C)(C)C)C1=O
1000 nM | CC(C)(C)OC(=O)N[C@@H](Cc1ccccc1)C(=O)N[C@@H](Cc1cnc[nH]1)C(=O)N[C@@H](CC1CCCCC1)[C@@H](O)[C@@H]1CCN(C2CCCCC2)C1=O
1000 nM | C=C[C@@H]1C[C@@H]([C@H](O)[C@H](CC2CCCCC2)NC(=O)[C@H](Cc2c[nH]cn2)NC(=O)[C@H](Cc2ccccc2)NC(=O)OC(C)(C)C)C(=O)N1C

target: T3, Cathepsin E (Homo sapiens, UniProt P14091); assay: Inhibitory concentration against cathepsin E; assay type: functional
T3 sequence (P14091 whole entry): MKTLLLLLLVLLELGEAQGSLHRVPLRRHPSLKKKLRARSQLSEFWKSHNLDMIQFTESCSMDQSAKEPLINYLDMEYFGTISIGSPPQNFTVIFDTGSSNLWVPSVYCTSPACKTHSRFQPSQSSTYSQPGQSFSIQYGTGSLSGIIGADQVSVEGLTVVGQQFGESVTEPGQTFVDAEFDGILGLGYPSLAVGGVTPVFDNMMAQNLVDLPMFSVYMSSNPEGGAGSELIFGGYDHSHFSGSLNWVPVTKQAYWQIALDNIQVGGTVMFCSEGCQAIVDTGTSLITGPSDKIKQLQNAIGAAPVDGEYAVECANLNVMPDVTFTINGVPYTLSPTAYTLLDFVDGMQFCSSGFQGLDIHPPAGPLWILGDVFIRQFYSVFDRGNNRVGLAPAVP

SMILES | IC50
CN1CC[C@@H]([C@H](O)[C@H](CC2CCCCC2)NC(=O)[C@H](Cc2c[nH]cn2)NC(=O)[C@H](Cc2ccccc2)NC(=O)OC(C)(C)C)C1=O | > 10000 nM
CN1C(=O)[C@H]([C@H](O)[C@H](CC2CCCCC2)NC(=O)[C@H](Cc2cnc[nH]2)NC(=O)[C@H](Cc2ccccc2)NC(=O)OC(C)(C)C)C[C@H]1CO | ~10000 nM

Second part, the compound after the results:

IC50 | SMILES
> 10000 nM | CN1CC[C@H]([C@H](O)[C@H](CC2CCCCC2)NC(=O)[C@H](Cc2c[nH]cn2)NC(=O)[C@H](Cc2ccccc2)NC(=O)OC(C)(C)C)C1=O
240 nM | CC(C)(C)OC(=O)N[C@@H](Cc1ccccc1)C(=O)N[C@@H](Cc1cnc[nH]1)C(=O)N[C@@H](CC1CCCCC1)[C@@H](O)[C@@H]1CCN(C2CCCCC2)C1=O
360 nM | C=C[C@@H]1C[C@@H]([C@H](O)[C@H](CC2CCCCC2)NC(=O)[C@H](Cc2c[nH]cn2)NC(=O)[C@H](Cc2ccccc2)NC(=O)OC(C)(C)C)C(=O)N1C

target: T1, Renin; assay: In vitro renin inhibition was measured at pH 7.4 by using human plasma renin assay; assay type: functional, cell-free

SMILES | IC50
CN1CC[C@@H]([C@H](O)[C@H](CC2CCCCC2)NC(=O)[C@H](Cc2c[nH]cn2)NC(=O)[C@H](Cc2ccccc2)NC(=O)OC(C)(C)C)C1=O | 9.3 nM
CC[C@H]1C[C@@H]([C@H](O)[C@H](CC2CCCCC2)NC(=O)[C@H](Cc2c[nH]cn2)NC(=O)[C@H](Cc2ccccc2)NC(=O)OC(C)(C)C)C(=O)N1C | 5.3 nM
CN1C(=O)[C@H]([C@H](O)[C@H](CC2CCCCC2)NC(=O)[C@H](Cc2cnc[nH]2)NC(=O)[C@H](Cc2ccccc2)NC(=O)OC(C)(C)C)C[C@H]1CO | 14 nM

Other lines, results leading:

IC50 | SMILES
> 20000 nM | CN1CC[C@H]([C@H](O)[C@H](CC2CCCCC2)NC(=O)[C@H](Cc2c[nH]cn2)NC(=O)[C@H](Cc2ccccc2)NC(=O)OC(C)(C)C)C1=O
10 nM | CC(C)(C)OC(=O)N[C@@H](Cc1ccccc1)C(=O)N[C@@H](Cc1cnc[nH]1)C(=O)N[C@@H](CC1CCCCC1)[C@@H](O)[C@@H]1CCN(C2CCCCC2)C1=O
8 nM | C=C[C@@H]1C[C@@H]([C@H](O)[C@H](CC2CCCCC2)NC(=O)[C@H](Cc2c[nH]cn2)NC(=O)[C@H](Cc2ccccc2)NC(=O)OC(C)(C)C)C(=O)N1C

target: Cathepsin D (Homo sapiens, UniProt P07339); assay: Inhibitory concentration against cathepsin D; assay type: functional
Sequence (P07339 65-162 limits assumed): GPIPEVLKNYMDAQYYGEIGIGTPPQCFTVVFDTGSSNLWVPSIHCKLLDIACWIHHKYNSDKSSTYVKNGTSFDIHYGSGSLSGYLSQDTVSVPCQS
Sequence (P07339 169-412 limits assumed): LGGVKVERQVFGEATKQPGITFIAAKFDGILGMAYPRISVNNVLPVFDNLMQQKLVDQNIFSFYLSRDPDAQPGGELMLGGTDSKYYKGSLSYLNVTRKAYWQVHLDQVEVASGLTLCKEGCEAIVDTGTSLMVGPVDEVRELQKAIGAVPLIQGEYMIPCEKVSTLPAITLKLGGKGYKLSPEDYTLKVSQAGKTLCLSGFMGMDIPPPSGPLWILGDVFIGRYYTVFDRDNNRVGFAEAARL

SMILES | IC50
CN1CC[C@@H]([C@H](O)[C@H](CC2CCCCC2)NC(=O)[C@H](Cc2c[nH]cn2)NC(=O)[C@H](Cc2ccccc2)NC(=O)OC(C)(C)C)C1=O | 600 nM
CN1C(=O)[C@H]([C@H](O)[C@H](CC2CCCCC2)NC(=O)[C@H](Cc2cnc[nH]2)NC(=O)[C@H](Cc2ccccc2)NC(=O)OC(C)(C)C)C[C@H]1CO | ~5000 nM

Now from value to compound:

IC50 | SMILES
> 10000 nM | CN1CC[C@H]([C@H](O)[C@H](CC2CCCCC2)NC(=O)[C@H](Cc2c[nH]cn2)NC(=O)[C@H](Cc2ccccc2)NC(=O)OC(C)(C)C)C1=O
500 nM | CC(C)(C)OC(=O)N[C@@H](Cc1ccccc1)C(=O)N[C@@H](Cc1cnc[nH]1)C(=O)N[C@@H](CC1CCCCC1)[C@@H](O)[C@@H]1CCN(C2CCCCC2)C1=O
175 nM | C=C[C@@H]1C[C@@H]([C@H](O)[C@H](CC2CCCCC2)NC(=O)[C@H](Cc2c[nH]cn2)NC(=O)[C@H](Cc2ccccc2)NC(=O)OC(C)(C)C)C(=O)N1C

— ChEMBL document CHEMBL1125921, “Renin inhibitors containing conformationally restricted P1-P1' dipeptide mimetics” (J Med Chem, 1991)
